In patent US20210052616A1, “ANTHRACYCLINE ENCAPSULATED WITH A POLYSACCHARIDE FOR USE IN THE TREATMENT OF TUMOURS” (NANOVELOS S.A, priority 2018, published 2021):
Entries after “also recorded” stand apart in the source; their conditions may differ.

Columns and labels:
PANC-1 = assay: MTT cytotoxicity test, PANC-1; type: cell-based; details: 24 h
Text: (§1) In this test, […] present in the cells converts the soluble tetrazolium salt (3-4,5-dimethylthiazol-2-yl)-2,5-diphenyltetrazolium bromide) into a reduced form. The reaction yields water-insoluble purple crystalline formazan. The number of crystals formed depends on the enzyme activity so that it is directly proportional to the number of viable cells in the sample. Spectrophotometric measurement requires the use of an organic solvent to dissolve the crystals obtained (isopropanol). The change in colour intensity is measured by spectrophotometry at 570 nm wavelength. The test was performed for a number of dilutions (9) of nanoparticle solutions containing the tested anthracycline. The baseline concentration of nanoparticles for MTT tests was 2.5 mg of nanoparticles/ml. […] The study was also performed for drug-free nanoparticles (the carrier itself was obtained similarly to the nanoparticles with the drug). Cells not exposed to toxic substances were used as a control for toxicity studies.
(§2) After reaching 85-90% confluence, the cells were trypsinised using a 0.25% trypsin solution. The cells were then centrifuged (1200 rpm, 5 min.) and suspended in a culture medium suitable for a particular cell line. […] The cells were plated at a concentration of 1000 cells/100 μl of medium per culture well (96-well plates). The prepared plates were incubated (37° C./5% CO2/22 h to 26 h). Subsequently, the culture medium was replaced with a fresh one (100 μl) containing the appropriate concentration of the tested nanoparticles and set aside for 24 h (37° C./5% CO2). After the lapse of the test time, the medium was removed and replaced with 50 μl of an MTT reagent solution at a concentration of 1 mg/ml. The plate was incubated for 2 hours (37° C./5% CO2). Subsequently, the MTT solution was removed, and 100 μl of isopropanol was added. […] The mean value of absorbance read OD570 of the cells not exposed to a toxic agent (control) should be above 0.7 [see literature item 206].
(§3) A decrease in the number of viable cells causes a decrease in metabolic activity in the sample. This reduction directly correlates with the amount of blue and purple formazan formed, monitored basing on the optical density at 570 nm. The following equation (C.1) is used to calculate viability reduction compared to control:
(§4) where: • OD570e is the mean value of the measured absorbance of the test samples; • OD570b is the mean value of the measured absorbance of the control.
(§5) The results obtained were statistically analysed using the Dixon Q test.

[1] = to limit side effects; cited from earlier work
OVCAR-3 = assay: MTT cytotoxicity test, OVCAR-3; type: cell-based; details: 24 h
Text: as §1, §2, §3, §4, §5

COLO 205 = assay: MTT cytotoxicity test, COLO 205; type: cell-based; details: 24 h
Text: as §1, §2, §3, §4, §5

AU565 = assay: MTT cytotoxicity test, AU565; type: cell-based; details: 24 h
Text: as §1, §2, §3, §4, §5

OVCAR3 line cells = assay: Anti-tumour efficacy, tumour volume, OVCAR3 xenograft, 10 mg/kg bw every 3 days (Example 4); type: in vivo, mice
Text: (§6) Following Example 3, mice were obtained constituting an ovarian tumour test model, which were divided into 3 groups.

internal organs [2] = assay: Macroscopic and histopathological examination of internal organs at necropsy (Example 3); type: in vivo, mice
[3] = 10 mg/kg bw every 3 days, following 3 administrations
Text: as §6

internal organs [4] = details: microscopic images, dose of 10 mg/kg bw
Text: as §6

mice = assay: Survival of mice during treatment (Example 3); type: in vivo; details: EPI 15 mg/kg bw; NPs-EPI 3.75 and […] bw, i.v. every second day
[5] = PANC1, 1.25E+05 ng/ml NPs (pure drug equimolar)
[6] = PANC1, 1.25E+06 ng/ml NPs (pure drug equimolar)
[7] = PANC1, 2.50E+04 ng/ml NPs (pure drug equimolar)
[8] = PANC1, 2.50E+05 ng/ml NPs (pure drug equimolar)
[9] = PANC1, 2.50E+06 ng/ml NPs (pure drug equimolar)
[10] = PANC1, 5.00E+03 ng/ml NPs (pure drug equimolar)
[11] = PANC1, 5.00E+05 ng/ml NPs (pure drug equimolar)
[12] = OVCAR3, 1.25E+05 ng/ml NPs (pure drug equimolar)
[13] = OVCAR3, 1.25E+06 ng/ml NPs (pure drug equimolar)
[14] = OVCAR3, 2.50E+04 ng/ml NPs (pure drug equimolar)
[15] = OVCAR3, 2.50E+05 ng/ml NPs (pure drug equimolar)
[16] = OVCAR3, 2.50E+06 ng/ml NPs (pure drug equimolar)
[17] = OVCAR3, 5.00E+04 ng/ml NPs (pure drug equimolar)
[18] = OVCAR3, 5.00E+05 ng/ml NPs (pure drug equimolar)
[19] = Colo205, 1.25E+04 ng/ml NPs (pure drug equimolar)
[20] = Colo205, 1.25E+05 ng/ml NPs (pure drug equimolar)
[21] = Colo205, 1.25E+06 ng/ml NPs (pure drug equimolar)
[22] = Colo205, 2.50E+04 ng/ml NPs (pure drug equimolar)
[23] = Colo205, 2.50E+05 ng/ml NPs (pure drug equimolar)
[24] = Colo205, 2.50E+06 ng/ml NPs (pure drug equimolar)
[25] = Colo205, 5.00E+03 ng/ml NPs (pure drug equimolar)
[26] = Colo205, 5.00E+04 ng/ml NPs (pure drug equimolar)
[27] = Colo205, 5.00E+05 ng/ml NPs (pure drug equimolar)
[28] = AU565, 1.25E+04 ng/ml NPs (pure drug equimolar)
[29] = AU565, 1.25E+05 ng/ml NPs (pure drug equimolar)
[30] = AU565, 2.50E+04 ng/ml NPs (pure drug equimolar)
[31] = AU565, 2.50E+05 ng/ml NPs (pure drug equimolar)
[32] = AU565, 2.50E+06 ng/ml NPs (pure drug equimolar)
[33] = AU565, 5.00E+03 ng/ml NPs (pure drug equimolar)
[34] = AU565, 5.00E+04 ng/ml NPs (pure drug equimolar)
[35] = AU565, 5.00E+05 ng/ml NPs (pure drug equimolar)
[36] = 10 mg/kg bw every 3 days, group average

Compound: COc1cccc2c1C(=O)c1c(O)c3c(c(O)c1C2=O)C[C@@](O)(C(C)=O)C[C@@H]3O[C@H]1C[C@H](N)[C@H](O)[C@H](C)O1 [Dau, daunorubicin]
- Average viability (PANC-1; [5]): 48.79%
- Average viability (PANC-1; [6]): 1.02%
- Average viability (PANC-1; [7]): 61.24%
- Average viability (PANC-1; [8]): 33.21%
- Average viability (PANC-1; [9]): 95.12%
- Average viability (PANC-1; [10]): 95.12%
- Average viability (PANC-1; PANC1, 5.00E+04 ng/ml NPs (pure drug equimolar)): 56.67%
- Average viability (PANC-1; [11]): 0.54%
- maximum recommended cumulative dose [1]: 500 mg/m^2
- Average viability (OVCAR-3; OVCAR3, 1.25E+04 ng/ml NPs (pure drug equimolar)): 3.616%
- Average viability (OVCAR-3; [12]): 59.635%
- Average viability (OVCAR-3; [13]): 94.253%
- Average viability (OVCAR-3; [14]): 43.386%
- Average viability (OVCAR-3; [15]): 71.147%
- Average viability (OVCAR-3; [16]): 99.822%
- Average viability (OVCAR-3; OVCAR3, 5.00E+03 ng/ml NPs (pure drug equimolar)): 1.330%
- Average viability (OVCAR-3; [17]): 52.550%
- Average viability (OVCAR-3; [18]): 120.518%
- Average viability (COLO 205; [19]): 34.20%
- Average viability (COLO 205; [20]): 3.75%
- Average viability (COLO 205; [21]): 5.07%
- Average viability (COLO 205; [22]): 19.17%
- Average viability (COLO 205; [23]): 3.47%
- Average viability (COLO 205; [24]): 30.89%
- Average viability (COLO 205; [25]): 30.89%
- Average viability (COLO 205; [26]): 4.46%
- Average viability (COLO 205; [27]): 2.93%
- Average viability (AU565; [28]): 58.57%
- Average viability (AU565; [29]): 25.83%
- Average viability (AU565; AU565, 1.25E+06 ng/ml NPs (pure drug equimolar)): 1.544%
- Average viability (AU565; [30]): 33.22%
- Average viability (AU565; [31]): 12.14%
- Average viability (AU565; [32]): 1.053%
- Average viability (AU565; [33]): 75.96%
- Average viability (AU565; [34]): 28.26%
- Average viability (AU565; [35]): 3.245%

Compound: COc1cccc2c1C(=O)c1c(O)c3c(c(O)c1C2=O)C[C@@](O)(C(=O)CO)C[C@@H]3O[C@H]1C[C@H](N)[C@@H](O)[C@H](C)O1 [Epi, epirubicin]
- Average tumour volume (mm^3) Before necropsy (OVCAR3 line cells; 10 mg/kg bw every 3 days (group K), after 3 administrations): 124.45 ± 57.05 mm^3
- Average tumour volume (mm^3) Before 1st administration (OVCAR3 line cells; [36]): 143.56 ± 9.22 mm^3
- Average tumour volume (mm^3) Before 2nd administration (OVCAR3 line cells; [36]): 148.77 ± 41.82 mm^3
- Average tumour volume (mm^3) Before 3rd administration (OVCAR3 line cells; [36]): 131.00 ± 42.96 mm^3
- average increase of tumour volume (OVCAR3 line cells; 10 mg/kg bw, after the first dose): 3.63%
- inflammation and changes of liver and spleen compared to the control group (internal organs [2]; OVCAR3 mice): severe inflammation and changes in the structure of the liver
- Macroscopic evaluation of internal organs: Adrenal glands (internal organs [2]; mouse #5, 15 mg/kg bw): No visible changes
- Macroscopic evaluation of internal organs: Bladder (internal organs [2]; mouse #5, 15 mg/kg bw): No visible changes
- Macroscopic evaluation of internal organs: Brain (internal organs [2]; mouse #5, 15 mg/kg bw): No visible changes
- Macroscopic evaluation of internal organs: Heart (internal organs [2]; mouse #5, 15 mg/kg bw): No visible changes
- Macroscopic evaluation of internal organs: Left kidney (internal organs [2]; mouse #5, 15 mg/kg bw): Consistency softer than normal
- Macroscopic evaluation of internal organs: Liver (internal organs [2]; mouse #5, 15 mg/kg bw): consistency softer than normal, blood vessels; also recorded: Liver surface colour dark cherry to brown,
- Macroscopic evaluation of internal organs: Lung (internal organs [2]; mouse #5, 15 mg/kg bw): No visible changes
- Macroscopic evaluation of internal organs: Pancreas (internal organs [2]; mouse #5, 15 mg/kg bw): No visible changes
- Macroscopic evaluation of internal organs: Reproductive organs (internal organs [2]; mouse #5, 15 mg/kg bw): No visible changes
- Macroscopic evaluation of internal organs: Right kidney (internal organs [2]; mouse #5, 15 mg/kg bw): Consistency softer than normal
- Macroscopic evaluation of internal organs: Spleen (internal organs [2]; mouse #5, 15 mg/kg bw): 1.6 cm × 0.4 cm × 0.1 cm in size, and slightly smaller, dark brown in colour
- Macroscopic evaluation of internal organs: Stomach (internal organs [2]; mouse #5, 15 mg/kg bw): No visible changes
- Macroscopic evaluation of internal organs: Thymus (internal organs [2]; mouse #5, 15 mg/kg bw): No visible changes
- External appearance of the mouse: skin thick (internal organs [2]; mouse #5, EPI/OVCAR3 group, 15 mg/kg bw): 0.21 mm
- External appearance of the mouse (internal organs [2]; mouse #5, EPI/OVCAR3 group, 15 mg/kg bw, 15 mg/kg): Anal area dirty with faeces, mouse; also recorded: cachectic
- Average viability (PANC-1; PANC1, 1.25E+04 ng/ml NPs (pure drug equimolar)): 94.813%
- Average viability (PANC-1; [5]): 82.872%
- Average viability (PANC-1; [6]): 27.965%
- Average viability (PANC-1; [7]): 99.155%
- Average viability (PANC-1; [8]): 79.499%
- Average viability (PANC-1; [9]): 5.339%
- Average viability (PANC-1; [10]): 97.954%
- Average viability (PANC-1; [11]): 54.929%
- average decrease of body weight [3]: 22.55%
- Average viability (OVCAR-3; [12]): 91.668%
- Average viability (OVCAR-3; [13]): 58.803%
- Average viability (OVCAR-3; [14]): 99.208%
- Average viability (OVCAR-3; [15]): 88.222%
- Average viability (OVCAR-3; [16]): 33.266%
- Average viability (OVCAR-3; [17]): 92.151%
- Average viability (OVCAR-3; [18]): 75.986%
- Average viability (COLO 205; [19]): 63.431%
- Average viability (COLO 205; [20]): 55.748%
- Average viability (COLO 205; [21]): 5.063%
- Average viability (COLO 205; [22]): 66.212%
- Average viability (COLO 205; [23]): 49.549%
- Average viability (COLO 205; [24]): 2.239%
- Average viability (COLO 205; [25]): 83.936%
- Average viability (COLO 205; [26]): 61.427%
- Average viability (COLO 205; [27]): 23.946%
- Appearance of the organ: Tumour (internal organs [4]): anaplastic lesions, moderate tumour necrosis
- Appearance of the organ: Liver (internal organs [4]; 10 mg/kg): Hyperaemia, features of hepatocyte; also recorded: feathery degeneration, focal necrosis
- Appearance of the organ: Reproductive organs (internal organs [4]; 10 mg/kg): Severe lesions, endometrial hypertrophy,; also recorded: cystic lesions, the growth of Leydig cells
- death or survival of the mice during treatment (mice): resulted in the death of the mice
- Average viability (AU565; [28]): 66.48%
- Average viability (AU565; [29]): 48.38%
- Average viability (AU565; [30]): 66.439%
- Average viability (AU565; [31]): 29.222%
- Average viability (AU565; [32]): 1.822%
- Average viability (AU565; [33]): 84.738%
- Average viability (AU565; [34]): 48.052%
- Average viability (AU565; [35]): 11.723%
